Test results: patent US20240344082A1, “VIRAL […] USE IN ENHANCING T-CELL PRIMING DURING VACCINATION” (GeoVax, Inc., priority 2021, published 2024)

Legend:
[1] = test system: antigen-specific CD8+ T-cell expansion; conditions: in combination with adenovirus-based or irradiated sporozoite-based malaria vaccine; immune-competent mice; cited from earlier work
[2] = test system: splenic PyCS-specific, IFN-γ-secreting CD8+ T cells; set-up: species or system mice; conditions: mouse, in vivo, sc

**Q.** With “CRRTSTGQISTLRVNITAPLSQ [LD01, synthetic peptide used as positive control]” as the sequence, how does the “antigen-specific CD8+ T-cell expansion” value [1] read?
**A.** enhances

**Q.** What about the “antigen-specific CD8+ T cell numbers relative to AdPyCS alone” value [2] of the same sequence?
**A.** significantly increased
